One series concerns HepG2 cells. Kind of series: MTT cytotoxicity assay in HepG2 cells. The format is cell-based, human. Conditions: HepG2 cells, MTT. Here is the method: (§1) HepG2 cells are seeded at between 1×10^4 and 2.5×10^4 cells/well in a 96-well microtitre plate. […] The formation of resorufin is quantified by fluorometry with a fluorescence plate reader. Fluorescence is determined at λex 570 nm and λem 590 nm. […] The remaining (i.e. all cells present at the beginning of analysis, since only supernatant is taken to assay EROD) live cells are subsequently utilized for the MIT cytotoxicity assay. […] The medium is carefully removed, then MIT formazan is solubilized by adding 200 μl of DMSO and subsequently mixed on a plate shaker. The absorbance is measured spectrophotometrically at 550 nm and background absorbance at 690 nm is subtracted.

Series [1] concerns CYP1A1 enzyme. Kind of series: EROD assay in HepG2 cells (cleavage of 7-ethoxyresorufin to resorufin). The format is cell-based, human. Conditions: 10 uM, 24 h. Here is the method: as §1
The next series concerns human sebocyte cells. Kind of series: MTT cytotoxicity assay in human cultured sebocytes. The format is cell-based. On the procedure:
(§2) Cells are seeded at between 1×10^4 and 2.5×10^4 cells/well in a 96-well microtitre plate. […] The formation of resorufin is quantified by fluorometry with a fluorescence plate reader. Fluorescence is determined at λex 570 nm and […]. The amount of resorufin is calculated from a standard curve generated using 0 to 1 μM resorufin in water at 34 log dilutions. The remaining (i.e. all cells present at the beginning of analysis, since only supernatant is taken to assay EROD) live cells are subsequently utilized for the MIT cytotoxicity assay. MIT is made up in serum-free medium at 5 mg/ml. then added to the cells giving a final concentration of 10% (0.5 mg/ml MIT final) then incubated for 2 h. The medium is carefully removed, then MTT formazan is solubilized by adding 200 μl of DMSO and subsequently mixed on a plate shaker. The absorbance is measured spectrophotometrically at 550 nm and background absorbance at 690 nm is subtracted. A standard curve generated using MTT formazan (dissolved in DMSO) from 0-200 μM (0, 2, 5, 10, 20, 50, 100, 200 μM) is used to calculate the final experimental values which are then expressed as (μmol resorufin/mol MIT formazan) or as fold-induction compared to solvent.

Another series has as its system CYP1A1 mRNA. Kind of series: CYP1A1 mRNA assay in HepG2 cells (RT-PCR). The conditions noted are these: 24 h incubation, 10 uM, normalized to 18S rRNA. The format is cell-based, human. Here is the method: HepG2 cells (American Type Culture Collection (ATCC), Manassas, Va.) were cultured using Eagle's minimal essential medium (ATCC), supplemented with 10% fetal calf serum (Invitrogen Life Technologies). […] Cells were plated at a seeding density of 3.8×10^5 cells per well on 6-well plates (Corning Costar, NY, U.S.A.). Cells were allowed to attach for 24 h in a 37° C. humidified incubator with a 5% CO2 atmosphere. Media was replaced with that containing test agents or vehicle (0.1% dimethylsulphoxide) and cells incubated for a further 24 h. Following the 24 h incubation with test agents, media was removed and RNA prepared using the Purelink RNA mini kit (ThermoFischer, Carlsbad, Calif.). Nucleic acid concentration was determined using a Nanodrop™ spectrophotometer (ThermoScientific) by measuring the OD at 260 nm and RNA purity was evaluated using the OD 260/280 nm ratio. 1 μg RNA was reverse transcribed using SuperScript®VILO™ (ThermoFischer) with cDNA synthesis performed using the following parameters: 10 min at 25° C., 2 h at 42° C., 5 min at 85° C. (deactivation) followed by a completion temperature of 4° C. […] Each sample (1 μl) was pipetted into a 96-well optical reaction plate (Applied Biosystems, Carlsbad, Calif.). […] Results were analyzed by calculating the fold change of CYP1A1 mRNA levels normalized to 18S rRNA (ΔΔCt) in compound treated cells or tissues compared to vehicle levels.

For series [2], the system named is CYP1A1 enzyme. Kind of series: EROD assay in human cultured sebocytes. The format is cell-based. The conditions noted are these: 10 uM, 24 h. On the procedure: as §2

SMILES strings stand for the structures.

Consider 1 compound from US20180185325A1, “12H-BENZO[b]XANTHEN-12-ONES, COMPOSITIONS CONTAINING, AND USES OF, SAME” (Thesan Pharmaceuticals, Inc., priority 2015, published 2018).

For the compound `O=c1cc(-c2ccccc2)oc2ccc3ccccc3c12` [Compound D, 3-Phenyl-1H-benzo[f]chromen-1-one, reference compound], the Toxicity threshold in the series on HepG2 cells was more than 50 µM; in the series on human sebocyte cells it was 30 µM. Also, the “% change vs. TCDD EROD (HepG2) at 10 uM” value with CYP1A1 enzyme [1] is 19%. For the same compound, the “CYP1A1 mRNA fold change from vehicle” value in the series on CYP1A1 mRNA is reported as 596 fold. Also, the “% change vs. TCDD EROD (Sebs) at 10 uM” value in the series on CYP1A1 enzyme [2] is on record as 17%.
